{"source": "ChEMBL document CHEMBL3091331", "about": "“Aminothiazole-featured pirinixic acid derivatives as dual 5-lipoxygenase and microsomal prostaglandin E2 synthase-1 inhibitors with improved potency and efficiency in vivo” (J Med Chem, 2013)", "key": {"[1]": {"molecular_target": "T1, Prostaglandin G/H synthase 2 (Homo sapiens) (UniProt P35354)", "T1 sequence (whole entry)": "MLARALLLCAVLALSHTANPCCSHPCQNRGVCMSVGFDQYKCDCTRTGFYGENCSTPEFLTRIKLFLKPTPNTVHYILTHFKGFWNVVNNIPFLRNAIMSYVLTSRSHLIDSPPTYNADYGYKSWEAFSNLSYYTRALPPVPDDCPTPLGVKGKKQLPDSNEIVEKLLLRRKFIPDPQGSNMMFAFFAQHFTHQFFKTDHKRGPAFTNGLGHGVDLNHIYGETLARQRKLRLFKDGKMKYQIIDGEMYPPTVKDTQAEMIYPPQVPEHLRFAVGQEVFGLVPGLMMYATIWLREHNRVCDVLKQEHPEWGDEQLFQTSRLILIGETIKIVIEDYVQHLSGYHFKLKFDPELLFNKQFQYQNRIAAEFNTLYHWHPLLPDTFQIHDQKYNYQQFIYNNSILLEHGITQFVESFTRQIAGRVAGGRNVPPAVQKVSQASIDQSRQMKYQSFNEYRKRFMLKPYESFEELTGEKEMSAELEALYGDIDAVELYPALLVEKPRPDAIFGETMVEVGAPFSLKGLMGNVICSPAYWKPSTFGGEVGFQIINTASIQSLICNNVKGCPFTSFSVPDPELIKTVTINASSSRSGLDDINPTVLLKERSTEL", "details": "at 10 µM", "description": "Inhibition of human recombinant COX2 using arachidonic acid as substrate at 10 uM incubated 5 mins prior to substrate addition measured after 5 mins by HPLC analysis"}, "[2]": {"molecular_target": "T2, Polyunsaturated fatty acid lipoxygenase ALOX15 (Homo sapiens) (UniProt P16050)", "T2 sequence (whole entry)": "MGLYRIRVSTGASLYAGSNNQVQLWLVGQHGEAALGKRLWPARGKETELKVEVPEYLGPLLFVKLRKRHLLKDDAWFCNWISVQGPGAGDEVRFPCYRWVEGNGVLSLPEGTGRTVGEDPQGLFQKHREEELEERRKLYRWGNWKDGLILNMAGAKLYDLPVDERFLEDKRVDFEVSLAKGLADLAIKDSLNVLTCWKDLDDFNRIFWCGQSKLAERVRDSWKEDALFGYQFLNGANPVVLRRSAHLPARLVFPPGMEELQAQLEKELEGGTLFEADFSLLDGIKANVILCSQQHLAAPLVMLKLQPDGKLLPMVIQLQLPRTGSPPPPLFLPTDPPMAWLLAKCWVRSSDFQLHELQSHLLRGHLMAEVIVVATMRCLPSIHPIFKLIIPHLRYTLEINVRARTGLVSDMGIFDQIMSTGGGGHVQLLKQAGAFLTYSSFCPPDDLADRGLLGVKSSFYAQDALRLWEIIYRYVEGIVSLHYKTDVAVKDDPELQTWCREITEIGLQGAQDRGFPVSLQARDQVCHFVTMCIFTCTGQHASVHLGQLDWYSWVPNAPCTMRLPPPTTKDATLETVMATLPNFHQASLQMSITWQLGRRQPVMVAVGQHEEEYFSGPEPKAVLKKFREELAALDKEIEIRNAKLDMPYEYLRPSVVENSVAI", "experiment": "Inhibition of 15-lipoxygenase in human polymorphonuclear leukocytes using arachidonic acid as substrate assessed as remaining activity at 10 uM incubated 15 mins prior to substrate addition measured after 10 mins by HPLC analysis relative to control", "assay_type": "cell-based"}, "[3]": {"experiment": "Metabolic stability in Sprague-Dawley rat liver microsomes assessed as compound remaining at 10 uM after 60 mins by HPLC analysis", "assay_type": "ADME", "details": "read-out: Stability"}, "Mus musculus [4]": {"system": "Mus musculus", "experiment": "Reduction of PGE2 biosynthesis in CD-1 mouse peritonitis model at 10 mg/kg, ip administered 30 mins prior to zymosan-challenge measured after 4 hrs by RIA relative to vehicle-treated control", "assay_type": "functional", "details": "CD-1, ip, route intraperitoneal"}, "Mus musculus [5]": {"system": "Mus musculus", "experiment": "Antiinflammatory activity in CD-1 mouse peritonitis model assessed as reduction in vascular permeability at 10 mg/kg, ip administered 30 mins prior to zymosan-challenge measured after 4 hrs relative to vehicle-treated control", "assay_type": "functional", "details": "CD-1, ip, route intraperitoneal"}, "[6]": {"molecular_target": "T3, Prostaglandin G/H synthase 1 (Ovis aries) (UniProt P05979)", "T3 sequence (whole entry)": "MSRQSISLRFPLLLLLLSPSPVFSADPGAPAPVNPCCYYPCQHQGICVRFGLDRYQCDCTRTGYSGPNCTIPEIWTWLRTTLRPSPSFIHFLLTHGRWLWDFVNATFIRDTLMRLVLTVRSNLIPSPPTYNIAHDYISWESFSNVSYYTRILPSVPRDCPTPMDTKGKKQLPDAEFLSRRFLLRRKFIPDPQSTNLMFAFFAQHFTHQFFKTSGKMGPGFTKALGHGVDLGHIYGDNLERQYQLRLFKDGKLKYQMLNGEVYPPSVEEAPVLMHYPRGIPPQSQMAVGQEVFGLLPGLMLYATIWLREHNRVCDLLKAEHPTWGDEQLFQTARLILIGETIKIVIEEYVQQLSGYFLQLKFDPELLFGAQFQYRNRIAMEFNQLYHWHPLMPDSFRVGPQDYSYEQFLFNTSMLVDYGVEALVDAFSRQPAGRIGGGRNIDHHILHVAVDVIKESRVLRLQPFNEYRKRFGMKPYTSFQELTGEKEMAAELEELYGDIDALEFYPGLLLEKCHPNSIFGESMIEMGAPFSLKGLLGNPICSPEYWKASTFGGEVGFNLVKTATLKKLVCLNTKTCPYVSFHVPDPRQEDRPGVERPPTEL", "experiment": "Inhibition of ovine COX1 using arachidonic acid as substrate at 10 uM incubated 5 mins prior to substrate addition measured after 5 mins by HPLC analysis"}}, "data": [{"molecule": "CCCCCCC(Sc1nc(Cl)cc(Nc2nc(-c3ccc4ccccc4c3)cs2)n1)C(=O)O", "note": "(racemic)", "values": [{"measurement": "inhibition", "setting": "[1]", "value": 18, "unit": "%"}, {"measurement": "Activity", "setting": "[2]", "value": 84, "unit": "%"}, {"measurement": "remaining at 1 h, 10 µM", "setting": "[3]", "value": 77, "unit": "%"}, {"measurement": "inhibition in vivo at 10 mg/kg", "setting": "Mus musculus [4]", "value": 46, "unit": "%"}, {"measurement": "inhibition in vivo at 10 mg/kg", "setting": "Mus musculus [5]", "value": 57, "unit": "%"}, {"measurement": "inhibition", "setting": "[6]", "value": 39, "unit": "%"}]}]}
